The values that follow come from patent publication US8865698B2, “Method of treatment using substituted pyrazolo[1,5-a]pyrimidine compounds” (Array BioPharma Inc., priority 2008, dated 2014).

Structures are written as SMILES.

histidine-tagged recombinant human TrkA, cytoplasmic domain, sequence (P04629 440-796): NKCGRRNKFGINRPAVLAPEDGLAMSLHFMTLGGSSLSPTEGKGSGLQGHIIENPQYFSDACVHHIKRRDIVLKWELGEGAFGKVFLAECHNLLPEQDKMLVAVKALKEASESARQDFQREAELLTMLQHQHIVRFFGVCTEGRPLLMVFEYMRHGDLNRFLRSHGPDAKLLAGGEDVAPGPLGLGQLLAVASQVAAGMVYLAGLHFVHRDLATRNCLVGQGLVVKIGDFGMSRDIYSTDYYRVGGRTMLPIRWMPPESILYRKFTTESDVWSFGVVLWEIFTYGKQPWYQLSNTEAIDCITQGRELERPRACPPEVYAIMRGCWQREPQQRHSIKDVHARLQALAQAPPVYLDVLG

The experiment deals with histidine-tagged recombinant human TrkA, cytoplasmic domain (Homo sapiens (Human), UniProt P04629). Kind of experiment: TrkA ELISA Assay. Type of experiment: biochemical. To be noted: 2.5 nM TrkA, 500 μM ATP, 25 minutes; read-out: TrkA Elisa Enzyme IC50. The method, then:
An enzyme-linked immunosorbant assay (ELISA) was used to assess TrkA kinase activity in the presence of inhibitors. Immulon 4HBX 384-well microtiter plates (Thermo part #8755) were coated with a 0.025 mg/mL solution of poly (Glu, Ala, Tyr; 6:3:1; Sigma P3899). Various concentrations of test compound, 2.5 nM TrkA (Invitrogen Corp., histidine-tagged recombinant human TrkA, cytoplasmic domain), and 500 μM ATP were incubated for 25 minutes at ambient temperature in the coated plates while shaking. The assay buffer consisted of 25 mM MOPS pH 7.5, 0.005% (v/v) Triton X-100 and 5 mM MgCl2. The reaction mixture was removed from the plate by washing with PBS containing 0.1% (v/v) Tween 20. The phosphorylated reaction product was detected using 0.2 μg/mL of a phosphotyrosine specific monoclonal antibody (clone PY20) conjugated to horseradish peroxidase in conjunction with the TMB Peroxidase Substrate System (KPL). After the addition of 1M phosphoric acid, the chromogenic substrate color intensity was quantitated via absorbance at 450 nm. IC50 values were calculated using either a 4 or 5-parameter logistic curve fit.
As a reminder, the IC50 is the midpoint of a concentration-inhibition curve. As to `O=C(Nc1cnn2ccc(N3CCC[C@@H]3c3cc(F)ccc3F)nc12)c1cc(Cl)ccn1` [Example 62, (R)-4-chloro-N-(5-(2-(2,5-difluorophenyl)pyrrolidin-1-yl)pyrazolo[1,5-a]pyrimidin-3-yl)picolinamide], the IC50 is 4 nM.
As for `Cc1cccnc1C(=O)Nc1cnn2ccc(N3CCC[C@@H]3c3cc(F)ccc3F)nc12` [Example 63, (R)—N-(5-(2-(2,5-difluorophenyl)pyrrolidin-1-yl)pyrazolo[1,5-a]pyrimidin-3-yl)-3-methylpicolinamide], the IC50 stood at 1.7 nM.
Turning to `CC(C)(CO)C(=O)Nc1cnn2ccc(N3CCC[C@@H]3c3cc(F)ccc3F)nc12` [Example 64, (R)—N-(5-(2-(2,5-difluorophenyl)pyrrolidin-1-yl)pyrazolo[1,5-a]pyrimidin-3-yl)-3-hydroxy-2,2-dimethylpropanamide], the IC50 stood at 7.5 nM.
As for `O=C(Nc1cnn2ccc(N3CCC[C@@H]3c3cc(F)ccc3F)nc12)C1(O)CC1` [Example 65, (R)—N-(5-(2-(2,5-difluorophenyl)pyrrolidin-1-yl)pyrazolo[1,5-a]pyrimidin-3-yl)-1-hydroxycyclopropanecarboxamide], the figure is 16.5 nM; as for `CNC(C)(C)C(=O)Nc1cnn2ccc(N3CCC[C@@H]3c3cc(F)ccc3F)nc12` [Example 66, (R)—N-(5-(2-(2,5-difluorophenyl)pyrrolidin-1-yl)pyrazolo[1,5-a]pyrimidin-3-yl)-2-methyl-2-(methylamino)propanamide], 52.5 nM.
As for `O=C(Nc1cnn2ccc(N3CCC[C@@H]3c3cc(F)ccc3F)nc12)c1ncccn1` [Example 67, (R)—N-(5-(2-(2,5-difluorophenyl)pyrrolidin-1-yl)pyrazolo[1,5-a]pyrimidin-3-yl)pyrimidine-2-carboxamide], the figure is 3 nM; as for `O=C(Nc1cnn2ccc(N3CCC[C@@H]3c3cccc(F)c3)nc12)c1ccccn1` [Example 68, (R)—N-(5-(2-(3-fluorophenyl)pyrrolidin-1-yl)pyrazolo[1,5-a]pyrimidin-3-yl)picolinamide], 4 nM; as for `Cc1cccnc1C(=O)Nc1cnn2ccc(N3CCC[C@@H]3c3cccc(F)c3)nc12` [Example 69, (R)—N-(5-(2-(3-fluorophenyl)pyrrolidin-1-yl)pyrazolo[1,5-a]pyrimidin-3-yl)-3-methylpicolinamide], 6.2 nM.
As for `Cn1ccc(C(=O)Nc2cnn3ccc(N4CCC[C@@H]4c4cccc(F)c4)nc23)cc1=O` [Example 70, (R)—N-(5-(2-(3-fluorophenyl)pyrrolidin-1-yl)pyrazolo[1,5-a]pyrimidin-3-yl)-1-methyl-2-oxo-1,2-dihydropyridine-4-carboxamide], the figure is 55.6 nM; as for `O=C(Nc1cnn2ccc(N3CCC[C@@H]3c3cc(F)ccc3F)nc12)c1cccc(Cl)n1` [Example 71, (R)-6-chloro-N-(5-(2-(2,5-difluorophenyl)pyrrolidin-1-yl)pyrazolo[1,5-a]pyrimidin-3-yl)picolinamide], 3.5 nM; as for `CCS(=O)(=O)Nc1ccc(C(=O)Nc2cnn3ccc(N4CCC[C@@H]4c4cccc(F)c4)nc23)cc1` [Example 72, (R)-4-(ethylsulfonamido)-N-(5-(2-(3-fluorophenyl)pyrrolidin-1-yl)pyrazolo[1,5-a]pyrimidin-3-yl)benzamide], 45.5 nM.
With `Cn1ccc(C(=O)Nc2cnn3ccc(N4CCC[C@@H]4c4cccc(F)c4)nc23)n1` [Example 73, (R)—N-(5-(2-(3-fluorophenyl)pyrrolidin-1-yl)pyrazolo[1,5-a]pyrimidin-3-yl)-1-methyl-1H-pyrazole-3-carboxamide], the IC50 stood at 8.5 nM.
As for `O=C(Nc1cnn2ccc(N3CCC[C@@H]3c3cccc(F)c3)nc12)c1cc[nH]n1` [Example 74, (R)—N-(5-(2-(3-fluorophenyl)pyrrolidin-1-yl)pyrazolo[1,5-a]pyrimidin-3-yl)-1H-pyrazole-3-carboxamide], the figure is 15.3 nM; as for `COc1cccc(C(=O)Nc2cnn3ccc(N4CCC[C@@H]4c4cccc(F)c4)nc23)n1` [Example 75, (R)—N-(5-(2-(3-fluorophenyl)pyrrolidin-1-yl)pyrazolo[1,5-a]pyrimidin-3-yl)-6-methoxypicolinamide], 7.4 nM; as for `O=C(Nc1cnn2ccc(N3CCC[C@@H]3c3cccc(F)c3)nc12)c1cccnc1` [Example 76, (R)—N-(5-(2-(3-fluorophenyl)pyrrolidin-1-yl)pyrazolo[1,5-a]pyrimidin-3-yl)nicotinamide], 53.3 nM.
With `O=C(Nc1cnn2ccc(N3CCC[C@@H]3c3cccc(F)c3)nc12)c1ccncc1` [Example 77, (R)—N-(5-(2-(3-fluorophenyl)pyrrolidin-1-yl)pyrazolo[1,5-a]pyrimidin-3-yl)isonicotinamide], the IC50 worked out at 71.8 nM.
As for `Cc1ccc(C(=O)Nc2cnn3ccc(N4CCC[C@@H]4c4cccc(F)c4)nc23)cn1` [Example 78, (R)—N-(5-(2-(3-fluorophenyl)pyrrolidin-1-yl)pyrazolo[1,5-a]pyrimidin-3-yl)-6-methylnicotinamide], the figure is 47 nM; as for `COc1ncccc1C(=O)Nc1cnn2ccc(N3CCC[C@@H]3c3cccc(F)c3)nc12` [Example 79, (R)—N-(5-(2-(3-fluorophenyl)pyrrolidin-1-yl)pyrazolo[1,5-a]pyrimidin-3-yl)-2-methoxynicotinamide], 5.7 nM; as for `Cc1cnccc1C(=O)Nc1cnn2ccc(N3CCC[C@@H]3c3cccc(F)c3)nc12` [Example 80, (R)—N-(5-(2-(3-fluorophenyl)pyrrolidin-1-yl)pyrazolo[1,5-a]pyrimidin-3-yl)-3-methylisonicotinamide], 320 nM.
As for `O=C(Nc1cnn2ccc(N3CCC[C@@H]3c3cc(F)ccc3Cl)nc12)N1CC[C@H](O)C1` [Example 81, (S)—N-(5-((R)-2-(2-chloro-5-fluorophenyl)pyrrolidin-1-yl)pyrazolo[1,5-a]pyrimidin-3-yl)-3-hydroxypyrrolidine-1-carboxamide], the figure is 8 nM; as for `Cc1cnc(C(=O)Nc2cnn3ccc(N4CCC[C@@H]4c4cccc(F)c4)nc23)cn1` [Example 82, (R)—N-(5-(2-(3-fluorophenyl)pyrrolidin-1-yl)pyrazolo[1,5-a]pyrimidin-3-yl)-5-methylpyrazine-2-carboxamide], 6.6 nM.
As for `Cn1ccnc1C(=O)Nc1cnn2ccc(N3CCC[C@@H]3c3cccc(F)c3)nc12` [Example 83, (R)—N-(5-(2-(3-fluorophenyl)pyrrolidin-1-yl)pyrazolo[1,5-a]pyrimidin-3-yl)-1-methyl-1H-imidazole-2-carboxamide], the figure is 35.4 nM; as for `O=C(Nc1cnn2ccc(N3CCC[C@@H]3c3cc(F)ccc3C(F)(F)F)nc12)N1CC[C@H](O)C1` [Example 84, (S)—N-(5-((R)-2-(5-fluoro-2-(trifluoromethyl)phenyl)pyrrolidin-1-yl)pyrazolo[1,5-a]pyrimidin-3-yl)-3-hydroxypyrrolidine-1-carboxamide], 3.2 nM; as for `O=C(Nc1cnn2ccc(N3CCC[C@@H]3c3cc(F)ccc3C(F)(F)F)nc12)N1CC[C@@H](O)C1` [Example 85, (R)—N-(5-((R)-2-(5-fluoro-2-(trifluoromethyl)phenyl)pyrrolidin-1-yl)pyrazolo[1,5-a]pyrimidin-3-yl)-3-hydroxypyrrolidine-1-carboxamide], 5.7 nM.
Consider `O=C(Nc1cnn2ccc(N3CCC[C@@H]3c3cc(F)ccc3C(F)(F)F)nc12)N1CCC[C@@H](O)C1` [Example 86, (R)—N-(5-((R)-2-(5-fluoro-2-(trifluoromethyl)phenyl)pyrrolidin-1-yl)pyrazolo[1,5-a]pyrimidin-3-yl)-3-hydroxypiperidine-1-carboxamide], for which the IC50 came out at 14 nM.
For the compound `O=C(Nc1cnn2ccc(N3CCC[C@@H]3c3cc(F)ccc3C(F)(F)F)nc12)N1CCC[C@H](O)C1` [Example 87, (S)—N-(5-((R)-2-(5-fluoro-2-(trifluoromethyl)phenyl)pyrrolidin-1-yl)pyrazolo[1,5-a]pyrimidin-3-yl)-3-hydroxypiperidine-1-carboxamide], the IC50 was 14.6 nM.
As for `O=C(Nc1cnn2ccc(N3CCC[C@@H]3c3cncc(F)c3)nc12)N1CC[C@H](O)C1` [Example 88, (S)—N-(5-((R)-2-(5-fluoropyridin-3-yl)pyrrolidin-1-yl)pyrazolo[1,5-a]pyrimidin-3-yl)-3-hydroxypyrrolidine-1-carboxamide], the figure is 156 nM; as for `O=C(Nc1cnn2ccc(N3CCC[C@@H]3c3cncc(F)c3)nc12)N1CC[C@@H](O)C1` [Example 89, (R)—N-(5-((R)-2-(5-fluoropyridin-3-yl)pyrrolidin-1-yl)pyrazolo[1,5-a]pyrimidin-3-yl)-3-hydroxypyrrolidine-1-carboxamide], 896 nM; as for `COc1ccc(F)cc1[C@H]1CCCN1c1ccn2ncc(NC(=O)N3CC[C@H](O)C3)c2n1` [Example 90, (S)—N-(5-((R)-2-(5-fluoro-2-methoxyphenyl)pyrrolidin-1-yl)pyrazolo[1,5-a]pyrimidin-3-yl)-3-hydroxypyrrolidine-1-carboxamide], 11.3 nM.
As for `COc1ccc(F)cc1[C@H]1CCCN1c1ccn2ncc(NC(=O)N3CCC[C@H](O)C3)c2n1` [Example 91, (S)—N-(5-((R)-2-(5-fluoro-2-methoxyphenyl)pyrrolidin-1-yl)pyrazolo[1,5-a]pyrimidin-3-yl)-3-hydroxypiperidine-1-carboxamide], the figure is 10.2 nM.
